Source: ChEMBL document CHEMBL3044778, “Lethal and sublethal effects of buprofezin and imidacloprid on the whitefly parasitoid Encarsia inaron (Hymenoptera: Aphelinidae)” (2012)
In brackets after ≈: the same amount, converted by molar mass. Activity calls are given as the source filed them. No cut-off for these calls is given here.

Assays:
[1] = system: Encarsia inaron; assay: Insecticidal activity against Encarsia inaron treated at pupal stages at 2000 ppm assessed as insect longevity (reference value: 8.7 days); format: functional, Pupal stage
[2] = system: Encarsia inaron; assay: Insecticidal activity against Encarsia inaron treated at larval stages at 31.25 ppm assessed as insect longevity (reference value: 5.60 days); format: functional, Larval stage
[3] = system: Encarsia inaron; assay: Insecticidal activity against Encarsia inaron adults reared on compound treated freshly cut cucumber leaves assessed as induction if insect mortality measured 48 hr post compound treatment; format: functional
[4] = system: Encarsia inaron; assay: Insecticidal activity against Encarsia inaron infested cucumber plants assessed as adult parasitoid emergence from parasitised host nymphs treated at pupae stages at 400 g ai/L SC measured 10 days post compound treatment (reference value: 79.60 %); format: functional
[5] = system: Encarsia inaron; assay: Insecticidal activity against Encarsia inaron infested cucumber plants assessed as adult parasitoid emergence from parasitised host nymphs treated at larval stages at 400 g ai/L SC measured 10 days post compound treatment (reference value: 79.60 %); format: functional, Larval stage
[6] = system: Encarsia inaron; assay: Insecticidal activity against Encarsia inaron treated at pupal stages assessed as mean generation time at 2000 ppm; format: functional, organism-based; conditions: Pupal stage
[7] = system: Encarsia inaron; assay: Insecticidal activity against Encarsia inaron treated at adult stages assessed as doubling time at 2000 ppm; format: functional, organism-based
[8] = system: Encarsia inaron; assay: Insecticidal activity against Encarsia inaron treated at adult stages assessed as mean generation time at 2000 ppm; format: functional, organism-based
[9] = system: Encarsia inaron; assay: Insecticidal activity against Encarsia inaron treated at adult stages assessed as finite rate of increase at 2000 ppm; format: functional, organism-based
[10] = system: Encarsia inaron; assay: Insecticidal activity against Encarsia inaron treated at adult stages assessed as intrinsic rate of increase at 2000 ppm; format: functional, organism-based
[11] = system: Encarsia inaron; assay: Insecticidal activity against Encarsia inaron treated at adult stages assessed as increase in net reproductive rate at 2000 ppm; format: functional, organism-based
[12] = system: Encarsia inaron; assay: Insecticidal activity against Encarsia inaron treated at pupal stages assessed as net reproductive rate at 2000 ppm; format: functional, organism-based; conditions: Pupal stage
[13] = system: Encarsia inaron; assay: Insecticidal activity against Encarsia inaron treated at pupal stages assessed as finite rate increase at 2000 ppm; format: functional, organism-based; conditions: Pupal stage
[14] = system: Encarsia inaron; assay: Insecticidal activity against Encarsia inaron treated at pupal stages assessed as intrinsic rate of increase at 2000 ppm; format: functional, organism-based; conditions: Pupal stage
[15] = system: Encarsia inaron; assay: Insecticidal activity against Encarsia inaron treated at larval stages assessed as mean generation time at 31.25 ppm; format: functional, organism-based; conditions: Larval stage
[16] = system: Encarsia inaron; assay: Insecticidal activity against Encarsia inaron treated at larval stages assessed as finite rate of increase at 31.25 ppm; format: functional, organism-based; conditions: Larval stage
[17] = system: Encarsia inaron; assay: Insecticidal activity against Encarsia inaron treated at larval stages assessed as intrinsic rate of increase at 31.25 ppm; format: functional, organism-based; conditions: Larval stage
[18] = system: Encarsia inaron; assay: Insecticidal activity against Encarsia inaron treated at adult stages at 2000 ppm assessed as insect total fecundity; format: functional, organism-based
[19] = system: Encarsia inaron; assay: Insecticidal activity against Encarsia inaron treated at pupal stages at 2000 ppm assessed as insect total fecundity; format: functional, organism-based; conditions: Pupal stage
[20] = system: Encarsia inaron; assay: Insecticidal activity against Encarsia inaron treated at larval stages at 31.25 ppm assessed as insect total fecundity; format: functional, organism-based; conditions: Larval stage
[21] = system: Encarsia inaron; assay: Insecticidal activity against Encarsia inaron treated at adult stages at 2000 ppm assessed as insect longevity (reference value: 8.95 days); format: functional
[22] = system: Encarsia inaron; assay: Insecticidal activity against Encarsia inaron treated at larval stages assessed as increase in net reproductive rate at 31.25 ppm; format: functional, organism-based; conditions: Larval stage
[23] = system: Encarsia inaron; assay: Insecticidal activity against Encarsia inaron treated at adult stages at 2000 ppm assessed as sex ratio (reference value: 0.72 no unit); format: functional
[24] = system: Encarsia inaron; assay: Insecticidal activity against Encarsia inaron treated at pupal stages at 2000 ppm assessed as sex ratio (reference value: 0.68 no unit); format: functional, Pupal stage
[25] = system: Encarsia inaron; assay: Insecticidal activity against Encarsia inaron treated at larval stages at 31.25 ppm assessed as sex ratio (reference value: 0.72 no unit); format: functional, Larval stage
[26] = system: Encarsia inaron; assay: Insecticidal activity against Encarsia inaron treated at adult stages at 2000 ppm assessed as insects eggs level per day (reference value: 2.33 egg/day); format: functional
[27] = system: Encarsia inaron; assay: Insecticidal activity against Encarsia inaron treated at pupal stages at 2000 ppm assessed as insects eggs level per day (reference value: 2.37 egg/day); format: functional, Pupal stage
[28] = system: Encarsia inaron; assay: Insecticidal activity against Encarsia inaron treated at larval stages at 31.25 ppm assessed as insects eggs level per day (reference value: 2.98 egg/day); format: functional, Larval stage
[29] = system: Encarsia inaron; assay: Insecticidal activity against Encarsia inaron treated at pupal stages at 62.5 ppm assessed as insect longevity (reference value: 8.7 days); format: functional, Pupal stage
[30] = system: Encarsia inaron; assay: Insecticidal activity against Encarsia inaron treated at larval stages at 62.5 ppm assessed as insect longevity (reference value: 5.60 days); format: functional, Larval stage
[31] = system: Encarsia inaron; assay: Insecticidal activity against Encarsia inaron infested cucumber plants assessed as adult parasitoid emergence from parasitised host nymphs treated at pupae stages at 350 g ai/L SC measured 10 days post compound treatment (reference value: 79.60 %); format: functional
[32] = system: Encarsia inaron; assay: Insecticidal activity against Encarsia inaron infested cucumber plants assessed as adult parasitoid emergence from parasitised host nymphs treated at larval stages at 350 g ai/L SC measured 10 days post compound treatment (reference value: 79.60 %); format: functional, Larval stage
[33] = system: Encarsia inaron; assay: Insecticidal activity against Encarsia inaron treated at adult stages assessed as intrinsic rate of increase at 23.37 ppm; format: functional, organism-based
[34] = system: Encarsia inaron; assay: Insecticidal activity against Encarsia inaron treated at adult stages assessed as increase in net reproductive rate at 23.37 ppm; format: functional, organism-based
[35] = system: Encarsia inaron; assay: Insecticidal activity against Encarsia inaron treated at adult stages assessed as doubling time at 23.37 ppm; format: functional, organism-based
[36] = system: Encarsia inaron; assay: Insecticidal activity against Encarsia inaron treated at adult stages assessed as mean generation time at 23.37 ppm; format: functional, organism-based
[37] = system: Encarsia inaron; assay: Insecticidal activity against Encarsia inaron treated at adult stages assessed as finite rate of increase at 23.37 ppm; format: functional, organism-based
[38] = system: Encarsia inaron; assay: Insecticidal activity against Encarsia inaron treated at pupal stages assessed as mean generation time at 62.5 ppm; format: functional, organism-based; conditions: Pupal stage
[39] = system: Encarsia inaron; assay: Insecticidal activity against Encarsia inaron treated at pupal stages assessed as net reproductive rate at 62.5 ppm; format: functional, organism-based; conditions: Pupal stage
[40] = system: Encarsia inaron; assay: Insecticidal activity against Encarsia inaron treated at pupal stages assessed as finite rate increase at 62.5 ppm; format: functional, organism-based; conditions: Pupal stage
[41] = system: Encarsia inaron; assay: Insecticidal activity against Encarsia inaron treated at pupal stages assessed as intrinsic rate of increase at 62.5 ppm; format: functional, organism-based; conditions: Pupal stage
[42] = system: Encarsia inaron; assay: Insecticidal activity against Encarsia inaron treated at adult stages at 23.37 ppm assessed as insect total fecundity; format: functional, organism-based
[43] = system: Encarsia inaron; assay: Insecticidal activity against Encarsia inaron treated at pupal stages at 62.5 ppm assessed as insect total fecundity; format: functional, organism-based; conditions: Pupal stage
[44] = system: Encarsia inaron; assay: Insecticidal activity against Encarsia inaron treated at larval stages at 62.5 ppm assessed as insect total fecundity; format: functional, organism-based; conditions: Larval stage
[45] = system: Encarsia inaron; assay: Insecticidal activity against Encarsia inaron treated at adult stages at 23.37 ppm assessed as insect longevity (reference value: 8.95 days); format: functional
[46] = system: Encarsia inaron; assay: Insecticidal activity against Encarsia inaron treated at larval stages assessed as mean generation time at 62.5 ppm; format: functional, organism-based; conditions: Larval stage
[47] = system: Encarsia inaron; assay: Insecticidal activity against Encarsia inaron treated at larval stages assessed as finite rate of increase at 62.5 ppm; format: functional, organism-based; conditions: Larval stage
[48] = system: Encarsia inaron; assay: Insecticidal activity against Encarsia inaron treated at larval stages assessed as intrinsic rate of increase at 62.5 ppm; format: functional, organism-based; conditions: Larval stage
[49] = system: Encarsia inaron; assay: Insecticidal activity against Encarsia inaron treated at larval stages assessed as increase in net reproductive rate at 62.5 ppm; format: functional, organism-based; conditions: Larval stage
[50] = system: Encarsia inaron; assay: Insecticidal activity against Encarsia inaron treated at adult stages at 23.37 ppm assessed as sex ratio (reference value: 0.72 no unit); format: functional
[51] = system: Encarsia inaron; assay: Insecticidal activity against Encarsia inaron treated at pupal stages at 62.5 ppm assessed as sex ratio (reference value: 0.68 no unit); format: functional, Pupal stage
[52] = system: Encarsia inaron; assay: Insecticidal activity against Encarsia inaron treated at larval stages at 62.5 ppm assessed as sex ratio (reference value: 0.72 no unit); format: functional, Larval stage
[53] = system: Encarsia inaron; assay: Insecticidal activity against Encarsia inaron treated at adult stages at 23.37 ppm assessed as insects eggs level per day (reference value: 2.33 egg/day); format: functional
[54] = system: Encarsia inaron; assay: Insecticidal activity against Encarsia inaron treated at pupal stages at 62.5 ppm assessed as insects eggs level per day (reference value: 2.37 egg/day); format: functional, Pupal stage
[55] = system: Encarsia inaron; assay: Insecticidal activity against Encarsia inaron treated at larval stages at 62.5 ppm assessed as insects eggs level per day (reference value: 2.98 egg/day); format: functional, Larval stage

Q: How did the Time [1] turn out when `CC(C)N1C(=O)N(c2ccccc2)CS/C1=N\C(C)(C)C` [BUPROFEZIN] was run?
A: The Time was 8.5 days.

Q: What about the Time [2] of the same compound?
A: The Time was 7.05 days.

Q: And the LC50 [3]?
A: Its LC50 is “inactive”.

Q: And the Activity [4]?
A: The Activity was 63.4%.

Q: What about the Activity [5] of the same compound?
A: The Activity was 2.6%.

Q: And the Activity [6]?
A: The Activity was “Active”.

Q: And the Activity [7]?
A: The Activity was “inactive”.

Q: And the Activity [8]?
A: The Activity was “inactive”.

Q: And the Activity [9]?
A: The Activity was “inactive”.

Q: What about the Activity [10] of the same compound?
A: Its Activity is “inactive”.

Q: What about the Activity [11] of the same compound?
A: The Activity was “inactive”.

Q: What about the Activity [12] of the same compound?
A: Its Activity is “Active”.

Q: What about the Activity [13] of the same compound?
A: The Activity was “inactive”.

Q: What about the Activity [14] of the same compound?
A: The Activity was “inactive”.

Q: What about the Activity [15] of the same compound?
A: The Activity was “inactive”.

Q: What about the Activity [16] of the same compound?
A: Its Activity is “inactive”.

Q: What about the Activity [17] of the same compound?
A: Its Activity is “inactive”.

Q: And the Activity [18]?
A: Its Activity is “inactive”.

Q: What about the Activity [19] of the same compound?
A: The Activity was “inactive”.

Q: And the Activity [20]?
A: The Activity was “inactive”.

Q: And the Time [21]?
A: The Time was 8.9 days.

Q: What about the Activity [22] of the same compound?
A: Its Activity is “inactive”.

Q: And the Ratio [23]?
A: The Ratio was 0.44.

Q: What about the Ratio [24] of the same compound?
A: Its Ratio is 0.44.

Q: What about the Ratio [25] of the same compound?
A: The Ratio was 0.49.

Q: What about the Activity [26] of the same compound?
A: The Activity was 4.58 day⁻¹.

Q: And the Activity [27]?
A: The Activity was 1.24 day⁻¹.

Q: What about the Activity [28] of the same compound?
A: Its Activity is 3.55 day⁻¹.

Q: What does the source list for `O=[N+]([O-])/N=C1\NCCN1Cc1ccc(Cl)nc1` [IMIDACLOPRID]?
A: Time [29]: 6.7 days; Time [30]: 13.2 days; LC10 [3]: 3.3 ppm; LC90 [3]: 13407 ppm; LC50 ([3]; Encarsia inaron, 48 h): 209 µg/mL (≈ 817 µM); Activity [31]: 15%; Activity [32]: 7%; Activity [33]: inactive; Activity [34]: inactive; Activity [35]: inactive; Activity [36]: inactive; Activity [37]: inactive; Activity [38]: Active; Activity [39]: Active; Activity [40]: inactive; Activity [41]: inactive; Activity [42]: Active; Activity [43]: Active; Activity [44]: Active; Time [45]: 6.85 days; Activity [46]: Active; Activity [47]: Active; Activity [48]: Active; Activity [49]: Active; Ratio [50]: 0.52; Ratio [51]: 0.59; Ratio [52]: 0.54; Activity [53]: 4.75 day⁻¹; Activity [54]: 2.77 day⁻¹; Activity [55]: 5.44 day⁻¹
